Columns and labels:
[1] = target: T1, Histone deacetylase 3 (Homo sapiens, UniProt O15379); assay: Inhibition of human KDAC3 at 30 uM using FITC-labeled p53 acetylated peptide as substrate after 60 mins by fluorescence assay relative to control
[2] = target: T2, Histone deacetylase 8 (Homo sapiens, UniProt Q9BY41); assay: Inhibition of human KDAC8 after 60 mins by fluorescence assay
T2 sequence (Q9BY41 whole entry): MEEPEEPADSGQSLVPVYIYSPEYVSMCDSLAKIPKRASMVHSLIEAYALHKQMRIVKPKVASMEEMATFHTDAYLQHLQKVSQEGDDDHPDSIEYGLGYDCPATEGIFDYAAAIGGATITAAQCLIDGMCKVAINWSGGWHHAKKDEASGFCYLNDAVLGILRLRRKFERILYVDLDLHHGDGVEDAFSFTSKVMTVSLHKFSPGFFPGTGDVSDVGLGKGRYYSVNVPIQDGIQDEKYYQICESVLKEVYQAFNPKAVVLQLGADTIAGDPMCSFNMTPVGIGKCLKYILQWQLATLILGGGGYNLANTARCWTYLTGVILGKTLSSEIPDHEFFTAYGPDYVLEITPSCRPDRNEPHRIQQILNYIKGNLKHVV

[3] = target: T3, Histone deacetylase 1 (Homo sapiens, UniProt Q13547); assay: Inhibition of human KDAC1 at 30 uM using substrate A after 60 mins by fluorescence assay relative to control
[4] = target: T4, Histone deacetylase 8 (Homo sapiens) (UniProt Q9BY41); assay: Inhibition of human KDAC8 at 30 uM after 60 mins by fluorescence assay relative to control
T4 sequence (whole entry): T2 sequence (Q9BY41 whole entry)

[5] = target: T5, Protein deacetylase HDAC6 (Homo sapiens) (UniProt Q9UBN7); conditions: at 30 µM
T5 sequence (whole entry): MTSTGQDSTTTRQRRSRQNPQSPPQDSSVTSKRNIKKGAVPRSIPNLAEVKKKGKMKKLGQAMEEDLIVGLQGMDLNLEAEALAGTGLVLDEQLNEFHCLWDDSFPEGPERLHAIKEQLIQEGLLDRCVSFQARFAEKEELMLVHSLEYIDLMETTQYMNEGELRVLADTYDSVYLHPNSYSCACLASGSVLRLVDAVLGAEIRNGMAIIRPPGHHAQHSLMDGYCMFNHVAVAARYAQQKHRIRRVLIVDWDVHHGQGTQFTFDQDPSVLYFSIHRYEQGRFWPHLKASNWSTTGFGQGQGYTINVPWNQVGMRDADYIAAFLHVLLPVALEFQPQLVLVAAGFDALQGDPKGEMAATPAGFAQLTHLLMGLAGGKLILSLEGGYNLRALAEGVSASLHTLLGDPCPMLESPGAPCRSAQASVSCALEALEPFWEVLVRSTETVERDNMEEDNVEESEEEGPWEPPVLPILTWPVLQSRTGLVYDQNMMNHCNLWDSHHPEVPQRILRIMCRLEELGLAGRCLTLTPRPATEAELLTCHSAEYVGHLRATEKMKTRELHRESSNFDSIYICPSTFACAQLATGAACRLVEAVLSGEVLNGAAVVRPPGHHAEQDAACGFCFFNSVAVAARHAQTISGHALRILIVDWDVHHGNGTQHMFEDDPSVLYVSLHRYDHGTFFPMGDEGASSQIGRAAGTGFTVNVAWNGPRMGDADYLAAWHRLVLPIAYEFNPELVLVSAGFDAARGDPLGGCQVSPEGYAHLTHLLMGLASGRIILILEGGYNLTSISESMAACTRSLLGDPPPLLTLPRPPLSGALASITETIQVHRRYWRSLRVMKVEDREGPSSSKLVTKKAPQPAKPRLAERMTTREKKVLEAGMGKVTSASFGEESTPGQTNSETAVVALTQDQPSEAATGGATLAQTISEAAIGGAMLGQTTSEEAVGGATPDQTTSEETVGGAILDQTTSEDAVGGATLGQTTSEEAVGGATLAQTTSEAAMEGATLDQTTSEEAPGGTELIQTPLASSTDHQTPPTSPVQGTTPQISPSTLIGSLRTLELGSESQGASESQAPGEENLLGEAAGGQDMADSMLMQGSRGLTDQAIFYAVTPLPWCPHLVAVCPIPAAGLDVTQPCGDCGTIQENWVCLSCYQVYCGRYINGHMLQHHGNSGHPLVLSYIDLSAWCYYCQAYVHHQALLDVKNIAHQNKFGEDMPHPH
Description: Inhibition of human KDAC6 at 30 uM using FITC-labeled histone H4 acetylated peptide as substrate after 60 mins by fluorescence assay relative to control

[6] = target: T6, Protein deacetylase HDAC6 (Homo sapiens, UniProt Q9UBN7); assay: Inhibition of human KDAC6 using FITC-labeled histone H4 acetylated peptide as substrate after 60 mins by fluorescence assay
T6 sequence (Q9UBN7 whole entry): T5 sequence (whole entry)

[7] = target: T3, Histone deacetylase 1; assay: Inhibition of human KDAC1 using substrate A after 60 mins by fluorescence assay
[8] = target: T1, Histone deacetylase 3; assay: Inhibition of human KDAC3 using FITC-labeled p53 acetylated peptide as substrate after 60 mins by fluorescence assay

T3 sequence (Q13547 whole entry): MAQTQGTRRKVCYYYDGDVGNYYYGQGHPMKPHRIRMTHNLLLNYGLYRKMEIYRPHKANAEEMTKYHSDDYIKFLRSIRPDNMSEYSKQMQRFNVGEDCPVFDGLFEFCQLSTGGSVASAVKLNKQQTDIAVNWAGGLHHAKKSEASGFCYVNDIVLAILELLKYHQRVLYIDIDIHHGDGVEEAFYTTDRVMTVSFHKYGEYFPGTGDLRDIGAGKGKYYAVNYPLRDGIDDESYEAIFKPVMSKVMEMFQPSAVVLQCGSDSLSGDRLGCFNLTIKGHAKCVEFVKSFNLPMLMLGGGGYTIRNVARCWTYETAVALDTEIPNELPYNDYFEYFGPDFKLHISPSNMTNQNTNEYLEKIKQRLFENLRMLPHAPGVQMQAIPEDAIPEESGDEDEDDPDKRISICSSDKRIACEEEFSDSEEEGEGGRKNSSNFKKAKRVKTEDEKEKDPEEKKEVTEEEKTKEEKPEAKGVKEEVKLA
T1 sequence (O15379 whole entry): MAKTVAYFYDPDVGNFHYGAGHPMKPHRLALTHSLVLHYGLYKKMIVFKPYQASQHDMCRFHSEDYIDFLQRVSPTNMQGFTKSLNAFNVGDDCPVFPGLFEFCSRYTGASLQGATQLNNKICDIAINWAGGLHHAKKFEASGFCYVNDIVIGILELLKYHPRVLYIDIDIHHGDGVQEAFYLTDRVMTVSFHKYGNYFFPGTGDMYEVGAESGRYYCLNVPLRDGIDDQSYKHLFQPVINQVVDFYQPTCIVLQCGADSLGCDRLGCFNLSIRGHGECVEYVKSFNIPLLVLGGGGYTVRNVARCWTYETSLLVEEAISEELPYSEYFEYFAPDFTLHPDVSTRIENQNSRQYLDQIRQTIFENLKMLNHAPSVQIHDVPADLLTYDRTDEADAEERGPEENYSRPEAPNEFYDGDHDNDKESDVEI

Row | Structure (SMILES) | inhibition [1] [%] | IC50 [2] [µM] | inhibition [3] [%] | inhibition [4] [%] | inhibition [5] [%] | IC50 [6] [µM] | IC50 [7] [µM] | IC50 [8] [µM]
1 | CC[C@@H](C)[C@@H]1N=C(c2ccccc2)c2ccccc2N(CCCCC(=O)NO)C1=O | 96.4 | > 30 | 75.1 | 33.1 | 90.9 | 3.75 | 11 | 1.03
2 | N[C@H](Cc1ccc(Cl)cc1Cl)C(=O)N1Cc2ccccc2C1 | – | 1.09 | – | – | – | > 30 | 27.4 | 20
3 | CC(C)C[C@@H]1N=C(c2ccccc2)c2ccccc2N(CCCCC(=O)NO)C1=O | 98.5 | > 30 | 80.5 | 45.2 | 91.6 | 2.33 | 5.9 | 0.57
4 | O=C1Nc2ccccc2C(c2ccccc2)=N[C@H]1Cc1cn(C(c2ccccc2)(c2ccccc2)c2ccccc2)cn1 | 0 | > 30 | 8.26 | 13.4 | 12.3 | > 30 | > 30 | > 30
5 | COC(=O)CCCCN1C(=O)[C@H](Cc2cncn2C(c2ccccc2)(c2ccccc2)c2ccccc2)N=C(c2ccccc2)c2ccccc21 | 0 | > 30 | 4.66 | 12.1 | 5.33 | > 30 | > 30 | > 30
6 | CC(C)(C)OC(=O)C[C@@H]1N=C(c2ccccc2)c2ccccc2N(CCCCC(=O)O)C1=O | 2.62 | > 30 | 0 | 0 | 0 | > 30 | > 30 | > 30
7 | O=C(O)CCCCN1C(=O)[C@H](Cc2cncn2C(c2ccccc2)(c2ccccc2)c2ccccc2)N=C(c2ccccc2)c2ccccc21 | 0 | > 30 | 7.49 | 10.4 | – | – | > 30 | > 30
8 | C[C@H](OCc1ccccc1)[C@@H]1N=C(c2ccccc2)c2ccccc2N(CCCCC(=O)O)C1=O | 0 | > 30 | 2.94 | 15.4 | 0 | > 30 | > 30 | > 30
9 | CC(C)(C)OC(=O)n1c(C[C@@H]2N=C(c3ccccc3)c3ccccc3N(CCCCC(=O)O)C2=O)cc2ccccc21 | 0.79 | > 30 | 11.3 | 23.2 | 7.4 | > 30 | > 30 | > 30
10 | CC(C)(C)OC(=O)n1c(C[C@@H]2N=C(c3ccccc3)c3ccccc3N(CCCCC(=O)NO)C2=O)cc2ccccc21 | 93.1 | 8.39 | 46.9 | 79.7 | 85 | 6.92 | > 30 | 5.21
11 | COC(=O)CCCCN1C(=O)[C@H](Cc2ccc(OC(C)(C)C)cc2)N=C(c2ccccc2)c2ccccc21 | 0.98 | > 30 | 8.72 | 0 | 0 | > 30 | > 30 | > 30
12 | CC(C)(C)OC(=O)CC[C@@H]1N=C(c2ccccc2)c2ccccc2N(CCCCC(=O)NO)C1=O | 99.9 | 26.1 | 83.8 | 52.5 | 93.7 | 2.35 | 4.57 | 1.03

Source: ChEMBL document CHEMBL3997794, “Design and synthesis of benzodiazepine analogs as isoform-selective human lysine deacetylase inhibitors” (Eur J Med Chem, 2017)
